Data on one substance can be found in patent US20030026831A1, “Anionic liposomes for delivery of bioactive agents” (priority 2001, published 2003).

The test system of data set [1] is Chinese hamster ovary cell line (CHO-K1). The data set can be described thus: Uptake of Cy3-ONs by CHO-K1 cells. The following applies: 1 μM Cy3-ONs, 1 h at 37° C. It is filed as cell-based. How it is done:
(§1) The ability of this delivery system to deliver DNA to cell types other than neurons was investigated by studying uptake of Cy3-oligonucleotides delivered by anionic DOPC/DOPG liposomes in cells derived from a variety of tissues. CHO, HeLa, HuH-7, MDCK and MEF-1 cells all avidly internalized AL-Cy3ONs within 1 h of incubation (FIG. 2). Uptake of AL-Cy3ONs occurred in the presence of serum in the culture medium. Similar to the uniform uptake seen in primary neurons, Cy3 fluorescence was visible in almost all cells exposed to AL-Cy3ONs in all cell types studied (Table 1). On the other hand, uptake of Cy3ON either without a delivery vector or complexed to cationic DC-Chol/DOPE liposomes was cell type-dependent, ranging from ˜5% in MDCK cells to ˜50% in HeLa cells (Table 1).

Data set [2] relates to Primary rat hippocampal neurons. The data set can be described thus: Uptake of Cy3-ONs by hippocampal neurons. Type of data set: cell-based. How it is done: Hippocampal Cell Culture. Primary cultures of hippocampal neurons were prepared from neonatal rat pups (P1 or P2) as previously described (Dubinsky, 1993). Neurons were plated onto 22-mm square glass coverslips coated with collagen and polylysine, at a density of 150,000 cells per coverslip. Neurons were cultured for 24-30 hours in minimum essential medium (MEM) with 10% NUSERUM (Collaborative Research) to increase attachment to the glass substrate, after which the growing medium was replaced with Neurobasal medium with B27 supplements (Life Technologies, Rockville, Md.). Fluorodeoxyuridine (15 μg/ml) was added to restrict the growth of non-neuronal cells. Cultures were maintained at 37° C. in a humidified atmosphere containing 5% CO2 for 6-9 days before use.
Uptake of Cy3-ONs by hippocampal neurons. […] Uninternalized ONs, liposomes or complexes were removed by several washes with L15 (Leibovitz's) medium. Cells were then fixed in 4% paraformaldehyde for 15 minutes at room temperature. For low temperature studies, neurons were incubated at 4° C. with AL-Cy3ONs for 10 minutes and then fixed. The cells were imaged immediately after fixation to avoid a potential redistribution of ONs (Grzanna et al., 1998).
(§2) Confocal Microscopy and Image Analysis. Imaging was performed on a Leica TCS 4D confocal microscope (Deerfield, Ill.) equipped with a Mercury/Xenon lamp and argon/krypton laser. Cells were excited using the 488 nm laser line to detect Oregon Green 488-Transferrin and Alexa488-Dextran, and the emitted fluorescence was collected using a 515 long-pass filter. The 568 nm laser line was used to excite Cy3 and N—Rh-DOPE (LP590 emission). Cells were imaged at a plane midway between the substrate-attached plasma membrane and the top of the cell, such that neuronal nuclei were clearly identifiable. In some cases, the entire volume of the cell was scanned in 0.5 μm increments. Optimal images were obtained by averaging 16 images in the line-scan mode at the same fixed gains for all experiments. […]

Data set [3] relates to hippocampal neurons. As to the kind of experiment: Colocalization with transferrin (early and recycling endosomes). It is filed as cell-based, rat. The following applies: delivered in anionic liposomes. Here is the method:
(§3) Colocalization of Lipids and Oligonucleotides with Transferrin and Dextran. Intracellular fates of endocytosed liposomes and ONs were determined by comparing their intracellular distributions with that of Oregon Green 488-Transferrin (OG-Tf) and Alexa488-dextran (Molecular Probes, Eugene, Oreg.) used as markers for the recycling and lysosomal compartments, respectively. Neurons were incubated with AL-Cy3ONs and either 100 μg/ml OG-Tf, for 30 minutes, 1 hour or 3 hours; or with 1 mg/ml Alexa488-dextran for 3 hours. For the lipid transport experiments, neurons were incubated with liposomes labeled with N—Rh-DOPE and either OG-TF, for 30 minutes, 1 hour, or 3 hours; or with 1 mg/ml Alexa-dextran for 3 hours. In another set of experiments, neurons were incubated with AL-Cy3ONs for 30 minutes, rinsed and chased with 1 mg/ml Alexa 488 dextran for 3 hours. Cells were rinsed and fixed for imaging as described above.
Confocal Microscopy and Image Analysis. Imaging was performed on a Leica TCS 4D confocal microscope (Deerfield, Ill.) equipped with a Mercury/Xenon lamp and argon/krypton laser. Cells were excited using the 488 nm laser line to detect Oregon Green 488-Transferrin and Alexa488-Dextran, and the emitted fluorescence was collected using a 515 long-pass filter. The 568 nm laser line was used to excite Cy3 and N—Rh-DOPE (LP590 emission). Cells were imaged at a plane midway between the substrate-attached plasma membrane and the top of the cell, such that neuronal nuclei were clearly identifiable. In some cases, the entire volume of the cell was scanned in 0.5 μm increments. Optimal images were obtained by averaging 16 images in the line-scan mode at the same fixed gains for all experiments. All fluorescent images presented in figures were equally contrast enhanced using ADOBE PHOTOSHOP (Adobe, Mountain View, Calif.).
(§4) All image analysis was performed using the METAMORPH Imaging System software (Universal Imaging, Downington, Pa.). The cell outlines for each set of double-labeled fields were traced out manually in the corresponding differential interference contrast image and then used to mask the fluorescence images. In each cell, the total fluorescence intensity was measured and the percent of Cy3 label or rhodamine label that colocalized with transferrin or dextran was calculated.

Data set [4] relates to Human cervical carcinoma (HeLa). As to the kind of experiment: Uptake of Cy3-ONs by HeLa cells. It is filed as cell-based. The following applies: 1 μM Cy3-ONs, 1 h at 37° C. How it is done: as §1
In data set [5] the test system is hippocampal neurons. The data set can be described thus: Colocalization with dextran (late endosomes and lysosomes). Type of data set: cell-based, rat. The following applies: 3 h, delivered in anionic liposomes. How it is done:
as §3
as §2, with “increments.” for “increments. Optimal images were obtained by averaging 16 images in the line-scan mode at the same fixed gains for all experiments.”
as §4

A further data set relates to Human hepatoma (Huh-7). As to the kind of experiment: Uptake of Cy3-ONs by Huh-7 cells. It is filed as cell-based. The following applies: 1 μM Cy3-ONs, 1 h at 37° C. Here is the method: as §1
Data set [6] concerns Canine kidney cell line (MDCK). The data set can be described thus: Uptake of Cy3-ONs by MDCK cells. Particulars: 1 μM Cy3-ONs, 1 h at 37° C. It is filed as cell-based. Here is the method: as §1
For data set [7], the system named is Mouse embryonic fibroblasts (MEF-1). The data set can be described thus: Uptake of Cy3-ONs by LRP-expressing MEF-1 cells. The following applies: 1 μM Cy3-ONs, 1 h at 37° C. It is filed as cell-based. How it is done: as §1
The endocytosis of AL-Cy3ONs in immortalized mouse embryonic fibroblast cell lines that expressed LRP (MEF-1) was compared to endocytosis of AL-Cy3ONs in immortalized mouse embryonic fibroblast cell lines that lacked the receptor (PEA-13).

{Cy3} = Cy3 fluorescent dye label

As for “Cy3-ONs without delivery system: 18-mer 5′-CTGTGAATCCTCCATGAC-3′ (SEQ ID NO:2), targets rat p53 mRNA, labeled at the 5′-end with Cy3 (DNA, 5' {Cy3}, backbone not given here; listed as Rattus norvegicus)”, the “Percent of cells with intracellular Cy3 fluorescence” value in data set [1] is reported as 17%; in data set [2] (Primary rat hippocampal neurons, 1 μM Cy3-ONs, 1 h at 37° C.), 6%; in data set [4], 51.5%; in data set [4] (listed as Cy3ON without a delivery vector), around 50%; in the data set on Human hepatoma (Huh-7) it was 18.3%; in data set [6], around 5%. The “Percent of cells with intracellular Cy3 fluorescence” value in data set [7] was determined as 20%. Moreover, in data set [2] (1 μM Cy3-ONs, 1 h, serum-containing medium), the “Uptake of Cy3-ONs by neurons” value was “taken up by a low percentage of neurons”. Moreover, the “Neuronal Cy3 fluorescence” value in data set [2] (2 μM Cy3ONs, 30 minutes at 37° C.) is “low level of diffuse cellular fluorescence in only a small percent of cells”. The “Percent colocalization with Transferrin” value in the data set with hippocampal neurons [3] (30 min, listed as Cy3ON) was 14.86 ± 1%; in the data set on hippocampal neurons [3] (30 min, listed as Cy3ONs), 15%; in the data set with hippocampal neurons [3] (1 h), 22.67 ± 1.7%; in the data set with hippocampal neurons [3] (3 h, listed as Cy3ON) it was 24.62 ± 2%; in the data set with hippocampal neurons [3] (3 h, listed as Cy3ONs) it was at most 25%. For the same substance, the “Percent colocalization with Dextran” value in the data set with hippocampal neurons [5] (listed as Cy3ON) was 20.13 ± 1.8%; in the data set with hippocampal neurons [5] (listed as Cy3ONs), 20%.
